{"source": "ChEMBL document CHEMBL4834457", "about": "“Discovery and optimization of selective RET inhibitors via scaffold hopping” (Bioorg Med Chem Lett, 2021)", "key": {"[1]": {"assay": "Intrinsic clearance in human liver microsomes", "assay_type": "ADME, Microsome", "conditions": "read-out: CLH"}, "[2]": {"assay": "Intrinsic clearance in mouse liver microsomes", "assay_type": "ADME, Microsome", "conditions": "read-out: CLH"}, "BaF3 [3]": {"tested_on": "BaF3", "assay": "Antiproliferative activity against mouse KIF5B-RET BaF3 cells by cell based assay", "assay_type": "functional"}, "[4]": {"target": "T1, Receptor-type tyrosine-protein kinase FLT3 (Homo sapiens, UniProt P36888)", "T1 sequence (P36888 whole entry)": "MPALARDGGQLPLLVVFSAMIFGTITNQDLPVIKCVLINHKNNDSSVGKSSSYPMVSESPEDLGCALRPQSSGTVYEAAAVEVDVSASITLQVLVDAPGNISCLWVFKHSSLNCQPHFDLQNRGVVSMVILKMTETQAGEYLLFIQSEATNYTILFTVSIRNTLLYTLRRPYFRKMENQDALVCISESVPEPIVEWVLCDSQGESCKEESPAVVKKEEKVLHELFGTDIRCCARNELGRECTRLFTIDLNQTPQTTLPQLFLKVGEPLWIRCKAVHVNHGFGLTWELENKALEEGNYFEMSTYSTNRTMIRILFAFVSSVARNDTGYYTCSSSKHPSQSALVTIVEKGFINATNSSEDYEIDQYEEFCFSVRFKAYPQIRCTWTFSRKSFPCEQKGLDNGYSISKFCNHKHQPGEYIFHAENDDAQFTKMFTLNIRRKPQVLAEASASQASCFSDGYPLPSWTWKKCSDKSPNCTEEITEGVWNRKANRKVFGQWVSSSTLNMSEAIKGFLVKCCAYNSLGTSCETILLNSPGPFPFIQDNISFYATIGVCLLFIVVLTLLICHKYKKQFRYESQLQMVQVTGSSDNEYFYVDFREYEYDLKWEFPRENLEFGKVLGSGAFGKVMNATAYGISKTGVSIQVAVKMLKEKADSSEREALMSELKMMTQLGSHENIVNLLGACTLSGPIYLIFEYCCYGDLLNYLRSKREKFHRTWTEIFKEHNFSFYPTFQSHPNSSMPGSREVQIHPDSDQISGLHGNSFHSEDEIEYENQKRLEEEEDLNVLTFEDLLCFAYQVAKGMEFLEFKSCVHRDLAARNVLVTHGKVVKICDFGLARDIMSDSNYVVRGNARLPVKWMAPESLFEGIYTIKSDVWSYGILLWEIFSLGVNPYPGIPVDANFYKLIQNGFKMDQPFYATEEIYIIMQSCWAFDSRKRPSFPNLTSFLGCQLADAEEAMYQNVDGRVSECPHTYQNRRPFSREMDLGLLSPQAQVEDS", "assay": "Inhibition of FLT3 (unknown origin)"}, "[5]": {"assay": "AUC in mouse plasma at 10 mg/kg, po", "assay_type": "ADME, organism-based", "design": "dose 10 mg/kg"}, "[6]": {"target": "Tyrosine-protein kinase JAK2 (Homo sapiens, UniProt O60674)", "sequence (O60674 whole entry)": "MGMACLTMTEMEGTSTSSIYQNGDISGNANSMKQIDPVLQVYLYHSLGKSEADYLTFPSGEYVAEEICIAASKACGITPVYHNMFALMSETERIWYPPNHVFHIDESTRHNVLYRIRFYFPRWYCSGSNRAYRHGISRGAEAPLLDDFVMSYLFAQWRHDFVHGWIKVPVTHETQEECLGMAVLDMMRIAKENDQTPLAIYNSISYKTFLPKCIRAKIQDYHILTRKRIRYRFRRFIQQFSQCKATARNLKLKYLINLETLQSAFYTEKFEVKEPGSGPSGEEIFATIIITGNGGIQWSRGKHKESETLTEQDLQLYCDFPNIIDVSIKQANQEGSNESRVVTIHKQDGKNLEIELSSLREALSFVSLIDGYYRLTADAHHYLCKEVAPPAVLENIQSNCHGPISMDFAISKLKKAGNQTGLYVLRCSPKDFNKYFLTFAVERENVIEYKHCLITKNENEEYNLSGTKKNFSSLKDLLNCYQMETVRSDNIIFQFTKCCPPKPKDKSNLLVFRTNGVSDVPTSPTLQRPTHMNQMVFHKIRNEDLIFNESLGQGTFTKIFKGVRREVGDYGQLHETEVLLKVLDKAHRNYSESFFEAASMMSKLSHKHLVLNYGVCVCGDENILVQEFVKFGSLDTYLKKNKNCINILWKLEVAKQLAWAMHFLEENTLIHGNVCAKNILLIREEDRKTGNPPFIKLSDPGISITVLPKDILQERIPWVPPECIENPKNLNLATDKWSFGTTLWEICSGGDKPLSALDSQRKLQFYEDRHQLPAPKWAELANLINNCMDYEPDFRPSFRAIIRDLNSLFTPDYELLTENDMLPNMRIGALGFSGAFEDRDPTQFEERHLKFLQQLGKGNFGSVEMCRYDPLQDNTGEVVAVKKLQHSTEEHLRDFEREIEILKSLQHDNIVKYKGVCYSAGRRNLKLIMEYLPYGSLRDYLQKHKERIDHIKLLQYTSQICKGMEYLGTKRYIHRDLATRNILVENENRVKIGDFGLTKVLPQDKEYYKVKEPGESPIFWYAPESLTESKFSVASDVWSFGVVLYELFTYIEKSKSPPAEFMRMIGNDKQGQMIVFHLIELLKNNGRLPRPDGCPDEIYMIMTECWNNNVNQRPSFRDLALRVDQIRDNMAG", "assay": "Inhibition of JAK2 (unknown origin)"}, "[7]": {"assay": "Oral bioavailability in mouse", "assay_type": "ADME, organism-based", "conditions": "in vivo"}, "[8]": {"assay": "Drug level in tumor of mouse transplanted with mouse KIF5B-RET Ba/F3 cells at 10 mg/kg, po qd for 10 days measured after 8.5 hrs", "assay_type": "ADME, organism-based, Neoplasm, BaF3", "conditions": "in vivo, 240 h, time 10 day"}, "[9]": {"assay": "Toxicity in mouse transplanted with mouse KIF5B-RET Ba/F3 cells assessed as change in body weight at 10 mg/kg, po […] for 10 days relative to control", "assay_type": "organism-based, BaF3", "conditions": "in vivo, 240 h, time 10 day"}, "[10]": {"assay": "Volume of distribution in mouse", "assay_type": "ADME, organism-based", "conditions": "in vivo"}, "[11]": {"assay": "Clearance in mouse", "assay_type": "ADME, organism-based", "conditions": "in vivo"}, "[12]": {"assay": "Drug level in plasma of mouse transplanted with mouse KIF5B-RET Ba/F3 cells at 10 mg/kg, po qd for 10 days measured after 8.5 hrs", "assay_type": "ADME, organism-based, BaF3", "conditions": "time 10 day"}, "BaF3 [13]": {"tested_on": "BaF3", "assay": "Antitumor activity against mouse KIF5B-RET BaF3 cells xenografted in nu/nu mouse assessed as tumour growth inhibition at 10 mg/kg, po qd for 10 days", "assay_type": "functional, organism-based", "conditions": "time 10.0 day"}, "[14]": {"assay": "Toxicity in mouse transplanted with mouse KIF5B-RET Ba/F3 cells assessed as change in body weight at 20 mg/kg, po […] for 10 days relative to control", "assay_type": "organism-based, BaF3", "conditions": "in vivo, 240 h, time 10 day"}, "[15]": {"target": "Proto-oncogene tyrosine-protein kinase receptor Ret (Homo sapiens, UniProt P07949, V804M)", "sequence (P07949 29-1114 V804M limits assumed)": "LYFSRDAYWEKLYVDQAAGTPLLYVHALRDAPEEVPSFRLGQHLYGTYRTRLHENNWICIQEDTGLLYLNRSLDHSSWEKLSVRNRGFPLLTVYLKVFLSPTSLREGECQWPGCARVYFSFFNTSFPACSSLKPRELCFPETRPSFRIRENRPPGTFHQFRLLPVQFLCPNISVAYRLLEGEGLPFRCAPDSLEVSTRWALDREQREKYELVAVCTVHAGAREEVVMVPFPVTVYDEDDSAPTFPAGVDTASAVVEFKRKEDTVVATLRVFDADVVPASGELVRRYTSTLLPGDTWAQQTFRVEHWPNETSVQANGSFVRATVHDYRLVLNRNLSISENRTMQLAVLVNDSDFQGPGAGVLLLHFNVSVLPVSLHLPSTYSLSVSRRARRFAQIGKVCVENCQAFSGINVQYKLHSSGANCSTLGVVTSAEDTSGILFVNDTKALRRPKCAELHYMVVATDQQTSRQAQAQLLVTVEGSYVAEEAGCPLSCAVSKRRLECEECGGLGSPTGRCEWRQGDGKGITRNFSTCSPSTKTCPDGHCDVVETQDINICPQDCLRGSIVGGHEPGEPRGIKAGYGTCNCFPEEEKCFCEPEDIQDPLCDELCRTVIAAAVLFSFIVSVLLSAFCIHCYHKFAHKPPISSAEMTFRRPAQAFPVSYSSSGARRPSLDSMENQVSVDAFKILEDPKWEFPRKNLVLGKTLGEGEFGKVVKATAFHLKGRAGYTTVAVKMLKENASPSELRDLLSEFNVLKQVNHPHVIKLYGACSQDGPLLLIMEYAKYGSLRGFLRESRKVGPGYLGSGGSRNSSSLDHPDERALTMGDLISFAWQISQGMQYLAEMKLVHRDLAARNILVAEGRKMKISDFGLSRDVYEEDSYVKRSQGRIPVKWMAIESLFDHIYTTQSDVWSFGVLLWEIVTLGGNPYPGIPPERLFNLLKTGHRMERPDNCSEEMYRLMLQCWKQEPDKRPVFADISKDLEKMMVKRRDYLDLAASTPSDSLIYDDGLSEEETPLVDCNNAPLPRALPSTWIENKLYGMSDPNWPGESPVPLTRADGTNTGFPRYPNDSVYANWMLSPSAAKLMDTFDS", "assay": "Inhibition of RET V804M mutant (unknown origin)"}, "[16]": {"target": "Proto-oncogene tyrosine-protein kinase receptor Ret (Homo sapiens, UniProt P07949)", "sequence (P07949 whole entry)": "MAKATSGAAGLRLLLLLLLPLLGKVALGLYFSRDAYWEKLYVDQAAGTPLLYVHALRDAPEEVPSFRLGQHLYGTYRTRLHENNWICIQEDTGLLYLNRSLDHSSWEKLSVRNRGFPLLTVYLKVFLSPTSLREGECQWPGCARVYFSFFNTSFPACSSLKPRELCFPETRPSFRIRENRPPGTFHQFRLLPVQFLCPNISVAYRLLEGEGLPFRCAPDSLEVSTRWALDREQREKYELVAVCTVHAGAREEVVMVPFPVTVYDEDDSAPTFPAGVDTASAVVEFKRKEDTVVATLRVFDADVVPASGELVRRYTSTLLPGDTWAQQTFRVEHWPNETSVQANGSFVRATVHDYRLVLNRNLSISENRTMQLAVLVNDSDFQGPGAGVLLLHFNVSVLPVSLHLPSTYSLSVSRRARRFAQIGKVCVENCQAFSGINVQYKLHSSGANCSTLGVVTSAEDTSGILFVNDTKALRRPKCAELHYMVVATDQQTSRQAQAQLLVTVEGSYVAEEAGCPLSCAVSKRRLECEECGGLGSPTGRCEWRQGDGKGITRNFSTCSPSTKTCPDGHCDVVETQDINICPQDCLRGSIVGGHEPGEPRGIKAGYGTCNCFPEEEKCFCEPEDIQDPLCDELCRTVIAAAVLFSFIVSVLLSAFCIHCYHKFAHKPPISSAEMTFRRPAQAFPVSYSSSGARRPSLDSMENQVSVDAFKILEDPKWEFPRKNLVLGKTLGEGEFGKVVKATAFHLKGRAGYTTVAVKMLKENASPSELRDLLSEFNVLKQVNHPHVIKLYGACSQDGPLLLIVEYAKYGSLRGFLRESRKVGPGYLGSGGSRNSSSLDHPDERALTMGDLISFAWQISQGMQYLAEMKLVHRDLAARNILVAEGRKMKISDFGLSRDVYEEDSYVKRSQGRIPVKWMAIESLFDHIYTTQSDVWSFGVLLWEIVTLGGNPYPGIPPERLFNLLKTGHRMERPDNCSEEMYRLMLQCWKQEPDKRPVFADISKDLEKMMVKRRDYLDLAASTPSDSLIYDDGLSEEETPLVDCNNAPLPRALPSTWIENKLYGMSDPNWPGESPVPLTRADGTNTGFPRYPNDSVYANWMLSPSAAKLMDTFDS", "assay": "Inhibition of RET wild type (unknown origin)"}, "BaF3 [17]": {"tested_on": "BaF3", "assay": "Antitumor activity against mouse KIF5B-RET BaF3 cells xenografted in nu/nu mouse assessed as tumour growth inhibition at 20 mg/kg, po qd for 10 days", "assay_type": "functional, organism-based", "conditions": "time 10.0 day"}, "[18]": {"target": "Proto-oncogene tyrosine-protein kinase receptor Ret (Homo sapiens, UniProt P07949, M918T)", "sequence (P07949 29-1114 M918T limits assumed)": "as the sequence (P07949 29-1114 V804M limits assumed) above, with M776V, M890T counted along it", "assay": "Inhibition of RET M918T mutant (unknown origin)"}}, "note": "pIC50: −log10 of the molar value. Active and inactive are the calls of the source. The calls are words filed in the database; no cut-off is given here.", "data": [{"smiles": "Cc1cc(Nc2cc(C)[nH]n2)nc(C2CCC3(CCCN([C@@H](C)c4ccc(-n5cc(F)cn5)nc4)C3=O)CC2)n1", "note": "(some centres undefined)", "values": [{"measurement": "CLint scaled", "setting": "[1]", "result": "< 8.6", "unit": "mL/min/kg"}, {"measurement": "CLint scaled", "setting": "[2]", "result": "< 38", "unit": "mL/min/kg"}]}, {"smiles": "Cc1cc(Nc2cc(C)[nH]n2)nc(N2CCC3(CCCN([C@@H](C)c4cnc(-n5cc(F)cn5)cn4)C3=O)CC2)n1", "values": [{"measurement": "CLint scaled", "setting": "[1]", "result": 31.3, "unit": "mL/min/kg"}, {"measurement": "CLint scaled", "setting": "[2]", "result": 136, "unit": "mL/min/kg"}, {"measurement": "pIC50", "setting": "BaF3 [3]", "result": 7.72}]}, {"smiles": "Cc1cc(Nc2cc(C)[nH]n2)nc(N2CCC3(CCCN([C@@H](C)c4ccc(-n5cc(F)cn5)nc4)C3=O)CC2)n1", "values": [{"measurement": "CLint scaled", "setting": "[1]", "result": 36.4, "unit": "mL/min/kg"}, {"measurement": "CLint scaled", "setting": "[2]", "result": 155, "unit": "mL/min/kg"}, {"measurement": "pIC50", "setting": "BaF3 [3]", "result": 7.85}]}, {"smiles": "CO[C@]1(C(=O)N[C@@H](C)c2ccc(-n3cc(F)cn3)nc2)CC[C@H](c2nc(C)cc(Nc3cc(C)[nH]n3)n2)CC1", "note": "[PRALSETINIB]", "values": [{"measurement": "CLint scaled", "setting": "[1]", "result": "< 8.6", "unit": "mL/min/kg"}, {"measurement": "pIC50", "setting": "[4]", "result": 8.19}, {"measurement": "AUC", "setting": "[5]", "result": 46.1, "unit": "µM·h"}, {"measurement": "pIC50", "setting": "[6]", "result": 8.70}, {"measurement": "bioavailability", "setting": "[7]", "result": 77.2, "unit": "%"}, {"measurement": "Drug uptake", "setting": "[8]", "result": 2522, "unit": "nmol/kg"}, {"measurement": "Activity", "setting": "[9]", "result": "Non-Toxic"}, {"measurement": "Vd", "setting": "[10]", "result": 0.7, "unit": "L/kg"}, {"measurement": "clearance", "setting": "[11]", "result": 5, "unit": "mL/min/kg"}, {"measurement": "concentration at 240 h", "setting": "[12]", "result": 6.32, "unit": "µM"}, {"measurement": "CLint scaled", "setting": "[2]", "result": "< 38", "unit": "mL/min/kg"}, {"measurement": "pIC50", "setting": "BaF3 [3]", "result": 7.77}, {"measurement": "Activity", "setting": "BaF3 [13]", "result": "Active"}]}, {"smiles": "Cc1cc(Nc2cc(C)[nH]n2)nc(N2CCC3(CC2)OCCN([C@@H](C)c2ccc(-n4cc(F)cn4)nc2)C3=O)n1", "values": [{"measurement": "CLint scaled", "setting": "[1]", "result": 24.1, "unit": "mL/min/kg"}, {"measurement": "pIC50", "setting": "[4]", "result": 7.51}, {"measurement": "AUC", "setting": "[5]", "result": 27.7, "unit": "µM·h"}, {"measurement": "pIC50", "setting": "[6]", "result": 8.36}, {"measurement": "bioavailability", "setting": "[7]", "result": 59.7, "unit": "%"}, {"measurement": "Activity", "setting": "[14]", "result": "Non-Toxic"}, {"measurement": "pIC50", "setting": "[15]", "result": 8.71}, {"measurement": "pIC50", "setting": "[16]", "result": 8.89}, {"measurement": "Drug uptake", "setting": "[8]", "result": 8100, "unit": "nmol/kg"}, {"measurement": "Activity", "setting": "[9]", "result": "Non-Toxic"}, {"measurement": "Vd", "setting": "[10]", "result": 1.5, "unit": "L/kg"}, {"measurement": "clearance", "setting": "[11]", "result": 6.6, "unit": "mL/min/kg"}, {"measurement": "Activity", "setting": "BaF3 [17]", "result": "Active"}, {"measurement": "concentration at 240 h", "setting": "[12]", "result": 3.94, "unit": "µM"}, {"measurement": "CLint scaled", "setting": "[2]", "result": 79, "unit": "mL/min/kg"}, {"measurement": "pIC50", "setting": "[18]", "result": 9.05}, {"measurement": "pIC50", "setting": "BaF3 [3]", "result": 7.72}, {"measurement": "Activity", "setting": "BaF3 [13]", "result": "Active"}]}]}
